Measured values from article PMC10384011, “m-Terphenylamines, Acting as Selective COX-1 Inhibitors, Block Microglia Inflammatory Response and Exert Neuroprotective Activity” (Molecules, 2023).

What was measured:
BV2 microglia cells = test: Nitrite release (Griess reaction) in LPS-treated BV2 microglia; type: cell-based; details: LPS 1 μg/mL, basal = 100
Description: The COX-1 inhibition data prompted us to undertake further work on the activity of compounds 3 in a neuroinflammation situation. Once we had verified that the compounds studied were not toxic per se in microglia BV2 cells (see the data in Table S1), we measured the nitrites released to determine the efficacy of our compounds in reducing microglia activation. Nitric oxide is a potent mediator of the classic activated microglia phenotype (M1); in fact, the lack of nitrite release correlated with an anti-inflammatory microglia (M2) phenotype. Therefore, we evaluated the response of the BV2 microglia cells to a challenge of 1 μg/mL LPS. For this purpose, BV2 microglia cells were incubated with LPS, a well-known agonist of the toll-like receptor 4 (TLR4) that causes a neuroinflammatory response, in combination with increasing concentrations of our COX-1 inhibitors (1, 3, and 10 μM). […] Similar results were observed after 48 h of the LPS treatment.
Cultures were seeded into flasks containing supplemented medium and kept at 37 °C in a humidified atmosphere of 5% CO2 and 95% air. For assays, BV-2 cells were subcultured in 48-well plates at a seeding density of 1 × 10^5 cells per well. Cells were treated with LPS (Sigma-Aldrich, Madrid, Spain) for 24 or 48 h before confluence in RPMI with 1% FBS.
The NO assay was performed using the previously reported protocols. Briefly, 100 μL of culture supernatants were mixed with the same volume of Griess assay regent (1% sulfanilamide (Sigma Aldrich, Madrid, Spain), 0.1% naphthylethylenediamine dihydrochloride, and 2.5% phosphoric acid). Ten minutes later, the 560-nm absorbance was measured.

[1] = tested on: organotypic hippocampal cultures (OHCs); test: Cell death (propidium iodide uptake, CA1) in organotypic hippocampal cultures treated with LPS; type: cell-based, Sprague-Dawley rats; details: LPS 1 μg/mL, 24 h
Experimental: With these promising data in hand, we selected compound 3b for its study in a more complex preparation. In vivo administration of LPS produces a proinflammatory cascade that causes memory deficits, an increase of inflammatory markers, and impairment of hippocampal glutamatergic transmission, contributing to neuronal death. All of these functional changes have been described to take place mainly in the hippocampus region. Thus, we subjected organotypic hippocampal cultures (OHCs) to LPS (1 μg/mL) to assess the protective effect of COX-1 inhibition. This kind of explant allows us to study the microglia-neuron network in a more complex and physiological model of cerebral insult.
OHCs were conducted on 8–10-day-old Sprague-Dawley rats supplied by the animal facilities of Universidad Autónoma de Madrid (Madrid, Spain). Cultures were prepared according to the methods described by Stoppini et al. with some modifications. […]
Cell death was determined in the CA1 region by staining the OHCs with propidium iodide (PI). Thirty minutes before analyzing fluorescence, slices were incubated with PI (1 µg/mL). Fluorescence was measured in an epifluorescence Olympus BX50WI microscope. […] Fluorescence was measured in each slice using ImageJ.

Cc1ccc(-c2cc(N)cc(-c3ccccc3)c2)cc1 [Compound 3b, 4-Methyl-5′-amino-m-terphenyl]
Nitrite Release after 24 h (BV2 microglia cells; 1 μM): 123 ± 8%
Nitrite Release after 48 h (BV2 microglia cells; 1 μM): 140 ± 14%
Nitrite Release after 24 h (BV2 microglia cells; 3 μM): 100 ± 4 %
Nitrite Release after 48 h (BV2 microglia cells; 3 μM): 123 ± 10 %
Nitrite Release after 24 h (BV2 microglia cells; 10 μM): 105 ± 6 %
Nitrite Release after 48 h (BV2 microglia cells; 10 μM): 128 ± 10 %
Cell death (PI uptake in CA1) induced by LPS [1]: reduced cell death induced by LPS almost to basal levels
